Results as given in US8809541B2, “Heterocyclic compound, and composition for treating inflammatory diseases using same” (Neopharm Co., Ltd., priority 2010, dated 2014).

Assays:
[1] = target: T1, PAR-2 (Homo sapiens, UniProt P55085); assay: Confocal microscopy of PAR-2 activation in KNRK-PAR-2 cell line; assay type: cell-based; design: expressed in transfected cells; host or cells: KNRK (Kirsten Murine Sarcoma Virus transformed rat kidney epithelial cells); details: [Compound 98]=200 μM, [trypsin]=1 μM, [SLIGKV]=100 μM, KNRK-PAR-2 cells
T1 sequence (P55085 26-397): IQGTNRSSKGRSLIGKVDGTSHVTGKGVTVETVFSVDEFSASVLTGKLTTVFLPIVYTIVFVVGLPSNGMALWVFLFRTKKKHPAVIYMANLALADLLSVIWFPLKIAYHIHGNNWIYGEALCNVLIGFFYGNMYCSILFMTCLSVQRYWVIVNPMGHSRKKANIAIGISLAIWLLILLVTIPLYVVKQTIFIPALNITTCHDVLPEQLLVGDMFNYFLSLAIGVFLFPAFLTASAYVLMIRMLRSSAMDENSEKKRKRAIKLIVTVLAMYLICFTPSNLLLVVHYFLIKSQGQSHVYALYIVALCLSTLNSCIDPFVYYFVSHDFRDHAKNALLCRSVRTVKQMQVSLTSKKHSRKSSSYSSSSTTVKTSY
Experimental: In order to visually confirm activation of PAR-2, a cell line having the following structure was prepared referring to the existing reference documents, and activation of PAR-2 was observed by using a confocal microscopy. As a cell line, Kirsten Murine Sarcoma Virus transformed rat kidney epithelial cell (KNRK cell) was used, which is a cell line where, normally, PAR-2 is not expressed. In the KNRK cell, flag epitope was tagged to an N-terminal and Myc epitope was tagged to a C-terminal, so that a stable transfected cell was constructed. Flag and Myc of the thus prepared KNRK-PAR-2 cell line were subjected to double staining, and activation or non-activation of PAR-2 was observed by using the confocal microscopy ([trypsin]=1 μM, [SLIGKV(AP)]=100 μM). When the PAR-2 was not activated, Flag and Myc were double-stained and thus appears yellow in the merged image. However, when the PAR-2 was activated, Flag was separated away and thus a red image was shown.

[2] = target: T1, PAR-2; assay: PathHunter β-arrestin GPCR assay; assay type: cell-based; design: expressed in transfected cells; host or cells: KNRK (Kirsten Murine Sarcoma Virus transformed rat kidney epithelial cells); details: β-arrestin accumulation
Experimental: An in vitro assay protocol capable of detecting activation of PAR-2 was additively introduced besides the calcium immobilization assay, and activity of the selected material was measured. First, the PAR-2 inhibitory activity of Compound 98 was measured by using the PathHunter™ β-arrestin GPCR assay kit by DiscoveRx Company, capable of detecting accumulation of β-arrestin, which is an intercellular reaction material primarily generated by activation of PAR-2. As the measurement results, an IC50 value slightly different from the Calcium immobilization assay was observed (Table 1).

[3] = target: T1, PAR-2; assay: Calcium immobilization assay (Calcium-4 assay kit); assay type: cell-based; design: expressed in transfected cells; details: HCT-15 PAR-2-overexpressed cell line, activating peptide (AP) as activator
Experimental: In order to evaluate PAR-2 inhibitory activity of the synthesized material, first, an assay system capable of measuring the change in concentration of calcium ions in a cell in real-time was constructed, and then an evaluation was conducted by using the assay system. PAR-2 is a kind of G-protein coupled receptor (GPCR). When the PAR-2 is activated in the cell, phospholipase C-b (PLC-b) was activated to cleave phosphatidylinositol 4,5-bisphosphate (PIP2) into inositol triphosphate (IP3) and diacyl glycerol (DAG). The IP3 generated herein promotes secretion of calcium ions in an endoplasmic reticulum (ER), calcium ion reservoir in the cell, resulting in increasing calcium ions in the cell. An in vitro screening assay system capable of searching materials that may suppress the increase in concentration of calcium ions in the cell due to activation of PAR-2 was constructed based on the existing search results. As a PAR-2 activator used in the experiment, activating peptide (AP) was used. As a reagent for detecting the concentration of calcium ions in the cell, the Calcium-4 assay kit by Molecular Probe Company was used. HCT-15, a PAR-2-overexpressed cell line, was used as a cell line used in the experiment.
The PAR-2 inhibitory activity of the synthesized material was evaluated by using such the protocol, and the assay profile of Compound 98 synthesized in Example 1 was shown in FIG. 1.

[4] = tested on: nude mice (SKH-1); assay: Oxazolone chronic dermatitis animal model; assay type: in vivo; details: compared with the control group
Experimental: Efficacy of a selected material was evaluated by using a chronic dermatitis animal model. An animal model of which chronic dermatitis was induced by continuously applying oxaozolone, which is a kind of hapten, to the nude mice was used. […] In order to construct a chronic dermatitis animal model, 5% of oxazolone was applied to 6-week nude mice (SKH-1) and thus sensitized, and 0.1% of oxazolone was applied once every two days from a week after, resulting in inducing dermatitis symptom. The sample was applied to an animal after induction at an interval of once a day for three days, and various dermal functions and skin thickness change were observed. Finally, skin biopsy was conducted and histological observation was conducted.
As a positive control group used in the experiment, 0.05% of desonide, which is relatively low potency steroid, was used, and the transepidermal water loss, the moisture content in the stratum corneum, and skin thickness change were observed.

[5] = tested on: nude mice (SKH-1); assay: Recovery of acute skin barrier disruption (tape stripping); assay type: in vivo
Experimental: The recovery rate after acute skin barrier disruption was evaluated on a selected compound by using nude mice. Skins of both abdominal regions of each of 6-8 week aged nude mice (SKH-1) were subjected to repetitive tape stripping, so that transepidermal water loss reached a level of about 35˜40 g/m^2/hr, and then, respective samples were applied thereto. The transepidermal water loss was measured by using the TEWameter (Courage & Khazaka, Germany) immediately before and after skin barrier disruption and 3 hours and 6 hours after application, and the recovery rate of transepidermal water loss was calculated as follows.
(wherein, TEWLa is TEWL value immediately after barrier disruption, TEWLb is TEWL value at the baseline, and TEWLc is TEWL value at the indicated time.)

(2-methyl-1-m-tolyl-1H-benzo[d]imidazol-5-yl)(piperidin-1-yl)methanone [Compound 98]
Activation of PAR-2 (Flag/Myc double staining image) [1]: activation of PAR-2 was suppressed
IC50 [2]: 95.3 µM
IC50 [3]: 243 µM
Recovery of transepidermal water loss ([4]; FIG. 4): promoted recovery
Recovery of moisture content in the stratum corneum ([4]; FIG. 5): promoted recovery
PCNA positive keratinocyte (PCNA staining) ([4]; FIG. 7): statically significant decrease
Recovery rate of transepidermal water loss after acute skin barrier disruption ([5]; 1.0% applied to skin, 3 and 6 hours after application): rapid recovery
Activity in promoting the recovery after skin barrier disruption ([5]; overall conclusion, FIG. 3): best activity in promoting the recovery after skin barrier disruption
